Reference: US20160256515A1, “COMPOSITIONS AND METHODS FOR PREDICTION AND TREATMENT OF HUMAN CYTOMEGALOVIRUS INFECTIONS” (THE JOHNS HOPKINS UNIVERSITY, priority 2013, published 2016)
Like-named read-outs stand apart in the source and are kept apart here.

Legend:
NOD2 mRNA = format: cell-based, human; settings: non-infected HFFs, MDP 10 μg/ml
human CMV (HCMV) = test: CMV plaque numbers in human fibroblasts after pre-treatment; format: cell-based, human cytomegalovirus; settings: pre-treatment of human fibroblasts followed by CMV infection
IFN-β = IFN-β response (qPCR, ELISA) after pretreatment and CMV infection; format: cell-based, human
Description: RNA isolation and real time quantitative reverse transcriptase (qRT) PCR: Total RNA was isolated from cultured cells using RNeasy Mini kit (Qiagen, Georgetown, Md.) according to manufacturer's instructions. RevertAid first strand cDNA synthesis kit (Fermentas life sciences, Cromwell Park, Md.) was used to synthesize first strand cDNA from total RNA using oligo-dT primers. Negative reverse-transcriptase (−RT) reactions were included to ensure the specificity of qRT-PCR reactions. Synthesis of first strand cDNA from mRNA template was carried out at 42° C. for 1 h. Quantitative RT-PCR (qRT-PCR) was performed using specific primers and SYBER green (Fermentas life science) with two-step cycling protocol (95° C. for 15 s, 60° C. for 1 min). Reactions were performed in triplicates and GAPDH was used as internal control. mRNA levels in HCMV-infected cells were normalized to the mRNA produced in non-infected HFFs in addition to the internal normalization of each sample to GAPDH. The primers and gene targets appear in Table 1.
ELISA: Human interferon β (IFN-β) specific ELISA kit (PBL Interferon Source) was used to measure levels of secreted IFN-β from HFF-control and HFF-NOD2 overexpressing cells according to manufacturer's instructions.

Row | SMILES | induction of NOD2 expression (NOD2 mRNA; 12 h) | induction of NOD2 expression (NOD2 mRNA; 72 h) [fold] | plaque numbers (human CMV (HCMV)) | interferon response (IFN-β) (IFN-β; pretreatment) | mRNA and protein expression of IFN-β (IFN-β; pretreatment followed by CMV infection, qPCR and ELISA) | IFN-β responses in NOD2 KD cells (IFN-β; treatment in NOD2 KD cells)
1 | CC(=O)N[C@H]1C(O)O[C@H](CO)[C@@H](O)[C@@H]1O[C@H](C)C(=O)N[C@@H](C)C(=O)N[C@H](CCC(=O)O)C(N)=O (mixture of isomers) [MDP, muramyl dipeptide] | two fold | 1400 | – | – | – | –
2 | C[C@H](N)C(=O)N[C@H](CCC(=O)NC(CCCC(N)C(=O)O)C(=O)O)C(=O)O (stereo partly drawn) [tri-DAP, L-Ala-γ-D-Glu-mDAP] | – | – | significant reduction | enhanced | increased | can initiate independent IFN-β responses
